Reference: ChEMBL document CHEMBL3232998, “Spiromastixones A-O, antibacterial chlorodepsidones from a deep-sea-derived Spiromastix sp. fungus” (J Nat Prod, 2014)
pIC50: −log10 of the molar value. ≈ marks a conversion by molar mass, not a printed value.

The molecules below were run on Staphylococcus aureus (assay: Antibacterial activity against Staphylococcus aureus ATCC 29213 after 18 hrs by broth microdilution method). Settings: ATCC 29213, 18 h.
Format: functional

Structure (SMILES) | MIC
CCCc1c(Cl)c(OC)cc2c1Oc1c(Cl)c(O)c(Cl)c(CCC)c1C(=O)O2 | 0.5 µg/mL (≈ 1.12 µM)

The molecules below were run on Bacillus thuringiensis (assay: Antibacterial activity against Bacillus thuringiensis SCSIO BT01 after 18 hrs by broth microdilution method). Settings: SCSIO BT01, 18 h.
Format: functional

Structure (SMILES) | MIC
CCCc1c(Cl)c(OC)cc2c1Oc1c(Cl)c(O)c(Cl)c(CCC)c1C(=O)O2 | 0.5 µg/mL (≈ 1.12 µM)

These molecules were tested on Bacillus subtilis (assay: Antibacterial activity against Bacillus subtilis SCSIO BS01 after 18 hrs by broth microdilution method). Settings: SCSIO BS01, 18 h.
Format: functional

Structure (SMILES) | MIC
CCCc1c(Cl)c(OC)cc2c1Oc1c(Cl)c(O)c(Cl)c(CCC)c1C(=O)O2 | 0.25 µg/mL (≈ 0.561 µM)

What follows are molecules tested on Escherichia coli (assay: Antibacterial activity against Escherichia coli ATCC 25922 after 18 hrs by broth microdilution method). Settings: ATCC 25922, 18 h.
Format: functional

Structure (SMILES) | MIC
CCCc1c(Cl)c(OC)cc2c1Oc1c(Cl)c(O)c(Cl)c(CCC)c1C(=O)O2 | > 128 µg/mL

The molecules below were run on Staphylococcus aureus (assay: Antibacterial activity against methicillin-sensitive Staphylococcus aureus ATCC 29213 after 18 hrs by broth microdilution method). Settings: ATCC 29213, 18 h, read-out: IC50.
Format: functional, organism-based

Structure (SMILES) | MIC
CCCc1c(Cl)c(OC)cc2c1Oc1c(Cl)c(O)c(Cl)c(CCC)c1C(=O)O2 | 8 µM (≈ 3.57 µg/mL)

What follows are molecules tested on Staphylococcus aureus (assay: Antibacterial activity against methicillin-resistant Staphylococcus aureus ATCC 33591 after 18 hrs by broth microdilution method). Settings: ATCC 33591, 18 h, read-out: IC50.
Format: functional, organism-based

Structure (SMILES) | MIC
CCCc1c(Cl)c(OC)cc2c1Oc1c(Cl)c(O)c(Cl)c(CCC)c1C(=O)O2 | 4 µM (≈ 1.78 µg/mL)

These molecules were tested on Staphylococcus aureus (assay: Antibacterial activity against methicillin-sensitive Staphylococcus aureus 15 after 18 hrs by broth microdilution method). Settings: Staphylococcus aureus, 15, 18 h; read-out: IC50.
Format: functional, organism-based

Structure (SMILES) | MIC
CCCc1c(Cl)c(OC)cc2c1Oc1c(Cl)c(O)c(Cl)c(CCC)c1C(=O)O2 | 4 µM (≈ 1.78 µg/mL)

These molecules were tested on Staphylococcus aureus (assay: Antibacterial activity against methicillin-sensitive Staphylococcus aureus 12-28 after 18 hrs by broth microdilution method). Settings: 12-28, 18 h.
Format: functional, organism-based

Structure (SMILES) | pIC50
CCCc1c(Cl)c(OC)cc2c1Oc1c(Cl)c(O)c(Cl)c(CCC)c1C(=O)O2 | 5.40

Each molecule was assayed on Staphylococcus aureus (assay: Antibacterial activity against methicillin-resistant Staphylococcus aureus 12-33 after 18 hrs by broth microdilution method). Settings: 12-33, 18 h, read-out: IC50.
Format: functional, organism-based

Structure (SMILES) | MIC
CCCc1c(Cl)c(OC)cc2c1Oc1c(Cl)c(O)c(Cl)c(CCC)c1C(=O)O2 | 8 µM (≈ 3.57 µg/mL)

What follows are molecules tested on Staphylococcus epidermidis (assay: Antibacterial activity against methicillin-sensitive Staphylococcus epidermidis ATCC 12228 after 18 hrs by broth microdilution method). Settings: ATCC 12228, 18 h, read-out: IC50.
Format: functional, organism-based

Structure (SMILES) | MIC
CCCc1c(Cl)c(OC)cc2c1Oc1c(Cl)c(O)c(Cl)c(CCC)c1C(=O)O2 | 4 µM (≈ 1.78 µg/mL)

These molecules were tested on Staphylococcus epidermidis (assay: Antibacterial activity against methicillin-sensitive Staphylococcus epidermidis 12-6 after 18 hrs by broth microdilution method). Settings: 12-6, 18 h.
Format: functional, organism-based

Structure (SMILES) | pIC50
CCCc1c(Cl)c(OC)cc2c1Oc1c(Cl)c(O)c(Cl)c(CCC)c1C(=O)O2 | 5.40

What follows are molecules tested on Staphylococcus epidermidis (assay: Antibacterial activity against methicillin-resistant Staphylococcus epidermidis 12-8 after 18 hrs by broth microdilution method). Settings: 12-8, 18 h, read-out: IC50.
Format: functional, organism-based

Structure (SMILES) | MIC
CCCc1c(Cl)c(OC)cc2c1Oc1c(Cl)c(O)c(Cl)c(CCC)c1C(=O)O2 | 2 µM (≈ 0.891 µg/mL)

These molecules were tested on Enterococcus faecalis (assay: Antibacterial activity against vancomycin-sensitive Enterococcus faecalis ATCC 29212 after 18 hrs by broth microdilution method). Settings: ATCC 29212, 18 h, read-out: IC50.
Format: functional, organism-based

Structure (SMILES) | MIC
CCCc1c(Cl)c(OC)cc2c1Oc1c(Cl)c(O)c(Cl)c(CCC)c1C(=O)O2 | 128 µM (≈ 57.1 µg/mL)

The molecules below were run on Enterococcus faecalis (assay: Antibacterial activity against vancomycin-resistant Enterococcus faecalis ATCC 51299 after 18 hrs by broth microdilution method). Settings: ATCC 51299, 18 h, read-out: IC50.
Format: functional, organism-based

Structure (SMILES) | MIC
CCCc1c(Cl)c(OC)cc2c1Oc1c(Cl)c(O)c(Cl)c(CCC)c1C(=O)O2 | > 256 µM

These molecules were tested on Enterococcus faecalis (assay: Antibacterial activity against vancomycin-sensitive Enterococcus faecalis 12-5 after 18 hrs by broth microdilution method). Settings: 12-5, 18 h, read-out: IC50.
Format: functional, organism-based

Structure (SMILES) | MIC
CCCc1c(Cl)c(OC)cc2c1Oc1c(Cl)c(O)c(Cl)c(CCC)c1C(=O)O2 | > 256 µM

The molecules below were run on Enterococcus faecalis (assay: Antibacterial activity against vancomycin-resistant Enterococcus faecalis 09-9 after 18 hrs by broth microdilution method). Settings: 09-9, 18 h, read-out: IC50.
Format: functional, organism-based

Structure (SMILES) | MIC
CCCc1c(Cl)c(OC)cc2c1Oc1c(Cl)c(O)c(Cl)c(CCC)c1C(=O)O2 | 256 µM (≈ 114 µg/mL)

These molecules were tested on Enterococcus faecium (assay: Antibacterial activity against vancomycin-resistant Enterococcus faecium ATCC 700221 after 18 hrs by broth microdilution method). Settings: ATCC 700221, 18 h, read-out: IC50.
Format: functional, organism-based

Structure (SMILES) | MIC
CCCc1c(Cl)c(OC)cc2c1Oc1c(Cl)c(O)c(Cl)c(CCC)c1C(=O)O2 | 256 µM (≈ 114 µg/mL)

What follows are molecules tested on Enterococcus faecium (assay: Antibacterial activity against vancomycin-resistant Enterococcus faecium 12-1 after 18 hrs by broth microdilution method). Settings: 12-1, 18 h, read-out: IC50.
Format: functional, organism-based

Structure (SMILES) | MIC
CCCc1c(Cl)c(OC)cc2c1Oc1c(Cl)c(O)c(Cl)c(CCC)c1C(=O)O2 | 16 µM (≈ 7.13 µg/mL)

The molecules below were run on Enterococcus faecium (assay: Antibacterial activity against vancomycin-sensitive Enterococcus faecium 12-3 after 18 hrs by broth microdilution method). Settings: 12-3, 18 h, read-out: IC50.
Format: functional, organism-based

Structure (SMILES) | MIC
CCCc1c(Cl)c(OC)cc2c1Oc1c(Cl)c(O)c(Cl)c(CCC)c1C(=O)O2 | 256 µM (≈ 114 µg/mL)

The molecules below were run on Escherichia coli (assay: Antibacterial activity against extended spectrum beta-lactamase-deficient Escherichia coli ATCC 25922 after 18 hrs by broth microdilution method). Settings: ATCC 25922, 18 h, read-out: IC50.
Format: functional, organism-based

Structure (SMILES) | MIC
CCCc1c(Cl)c(OC)cc2c1Oc1c(Cl)c(O)c(Cl)c(CCC)c1C(=O)O2 | > 256 µM

These molecules were tested on Escherichia coli (assay: Antibacterial activity against extended spectrum beta-lactamase-deficient Escherichia coli 1515 after 18 hrs by broth microdilution method). Settings: Escherichia coli, 1515, 18 h.
Format: functional, organism-based

Structure (SMILES) | pIC50
CCCc1c(Cl)c(OC)cc2c1Oc1c(Cl)c(O)c(Cl)c(CCC)c1C(=O)O2 | < 3.59

Each molecule was assayed on Escherichia coli (assay: Antibacterial activity against extended spectrum beta-lactamase-deficient Escherichia coli 12-14 after 18 hrs by broth microdilution method). Settings: 12-14, 18 h, read-out: IC50.
Format: functional, organism-based

Structure (SMILES) | MIC
CCCc1c(Cl)c(OC)cc2c1Oc1c(Cl)c(O)c(Cl)c(CCC)c1C(=O)O2 | > 256 µM

What follows are molecules tested on Escherichia coli (assay: Antibacterial activity against extended spectrum beta-lactamase producing Escherichia coli 12-15 after 18 hrs by broth microdilution method). Settings: 12-15, 18 h, read-out: IC50.
Format: functional, organism-based

Structure (SMILES) | MIC
CCCc1c(Cl)c(OC)cc2c1Oc1c(Cl)c(O)c(Cl)c(CCC)c1C(=O)O2 | > 256 µM

The molecules below were run on Klebsiella pneumoniae (assay: Antibacterial activity against extended spectrum beta-lactamase producing Klebsiella pneumoniae ATCC 700603 after 18 hrs by broth microdilution method). Settings: ATCC 700603, 18 h.
Format: functional, organism-based

Structure (SMILES) | pIC50
CCCc1c(Cl)c(OC)cc2c1Oc1c(Cl)c(O)c(Cl)c(CCC)c1C(=O)O2 | < 3.59

The molecules below were run on Klebsiella pneumoniae (assay: Antibacterial activity against extended spectrum beta-lactamase-deficient Klebsiella pneumoniae 7 after 18 hrs by broth microdilution method). Settings: Klebsiella pneumoniae, 7, 18 h; read-out: IC50.
Format: functional, organism-based

Structure (SMILES) | MIC
CCCc1c(Cl)c(OC)cc2c1Oc1c(Cl)c(O)c(Cl)c(CCC)c1C(=O)O2 | > 256 µM

What follows are molecules tested on Klebsiella pneumoniae (assay: Antibacterial activity against NDM-1 producing Klebsiella pneumoniae ATCC BAA-2146 after 18 hrs by broth microdilution method). Settings: ATCC BAA-2146, 18 h, read-out: IC50.
Format: functional, organism-based

Structure (SMILES) | MIC
CCCc1c(Cl)c(OC)cc2c1Oc1c(Cl)c(O)c(Cl)c(CCC)c1C(=O)O2 | > 256 µM

Each molecule was assayed on Klebsiella pneumoniae (assay: Antibacterial activity against extended spectrum beta-lactamase-deficient Klebsiella pneumoniae 12-4 after 18 hrs by broth microdilution method). Settings: 12-4, 18 h.
Format: functional, organism-based

Structure (SMILES) | pIC50
CCCc1c(Cl)c(OC)cc2c1Oc1c(Cl)c(O)c(Cl)c(CCC)c1C(=O)O2 | < 3.59

The molecules below were run on Klebsiella pneumoniae (assay: Antibacterial activity against extended spectrum beta-lactamase producing Klebsiella pneumoniae 12-8 after 18 hrs by broth microdilution method). Settings: 12-8, 18 h, read-out: IC50.
Format: functional, organism-based

Structure (SMILES) | MIC
CCCc1c(Cl)c(OC)cc2c1Oc1c(Cl)c(O)c(Cl)c(CCC)c1C(=O)O2 | > 256 µM

The molecules below were run on Staphylococcus aureus (assay: Ratio of levofloxacin IC50 to compound IC50 for methicillin-resistant Staphylococcus aureus 12-33 after 18 hrs by broth microdilution method). Settings: not given.
Format: functional

Structure (SMILES) | Ratio IC50
CCCc1c(Cl)c(OC)cc2c1Oc1c(Cl)c(O)c(Cl)c(CCC)c1C(=O)O2 | 2
